Results published in BindingDB's records for doi:10.1021/jm801627a (Vernalis (R&D), 2009).

Target: Heat shock 70 kDa protein 1A (Homo sapiens, UniProt P0DMV8)
Test: HSP70 Fluorescence Polarization Assay
Details: pH 7.4; 23 °C
Method: A fluorescein-labeled ATP-based probe was utilized, which binds to the GST fused ATPase domain (amino acids 3-383) of HSP70, producing an increase in mP. The presence of a compound which competitively binds to the same site as the probe would lead to decreased mP values, by increasing the amount of free probe. Compounds were tested as 10-point IC50s. Assay mixtures were incubated for three hours prior to reading on the Fusion (ex 485 nm; em 535 nm). The data was fitted using a 4 parameter logistical data model by XLFit 4 (IDBS).

Sequence of Heat shock 70 kDa protein 1A (P0DMV8 whole entry): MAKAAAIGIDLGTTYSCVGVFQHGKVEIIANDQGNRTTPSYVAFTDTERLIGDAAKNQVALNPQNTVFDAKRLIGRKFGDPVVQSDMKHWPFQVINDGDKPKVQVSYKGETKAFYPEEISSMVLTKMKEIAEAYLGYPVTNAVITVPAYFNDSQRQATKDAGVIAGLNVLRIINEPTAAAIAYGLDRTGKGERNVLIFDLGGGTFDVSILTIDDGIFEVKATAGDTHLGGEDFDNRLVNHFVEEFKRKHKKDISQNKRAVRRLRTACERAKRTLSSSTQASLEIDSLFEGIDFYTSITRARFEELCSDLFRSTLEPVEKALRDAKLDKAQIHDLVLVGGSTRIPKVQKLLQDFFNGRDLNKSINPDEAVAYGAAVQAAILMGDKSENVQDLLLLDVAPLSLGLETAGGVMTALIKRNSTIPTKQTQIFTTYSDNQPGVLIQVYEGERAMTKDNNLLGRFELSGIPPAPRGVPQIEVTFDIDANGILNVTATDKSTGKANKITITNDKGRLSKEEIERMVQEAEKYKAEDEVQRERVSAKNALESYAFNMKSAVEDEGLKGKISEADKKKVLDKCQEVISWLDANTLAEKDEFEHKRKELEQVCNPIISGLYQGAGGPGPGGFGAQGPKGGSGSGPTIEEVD

IC50: < 400 nM
SMILES: Nc1ncnc2c1nc(NCc1ccc3ncccc3c1)n2[C@@H]1O[C@H](COCc2cc(F)c(F)c(F)c2)[C@@H](O)[C@H]1O [adenosine-derived inhibitor, 17]
